Laboratory results published in patent publication US20240294543A1, “CYCLOHEPTA-THIENO-DIAZEPINE DERIVATIVES AS GABA A GAMMA1 PAM” (Hoffmann-La Roche Inc., priority 2021, published 2024).
Read-outs that look alike come from different tables or passages of the source.

Tests used:
[1] = target: human GABAA α5β2γ1 receptor (Homo sapiens (Human), UniProt P31644+Q8N1C3); assay: Radioligand binding assay, competition for [3H]RO7239181, γ1-containing GABAA subtypes
[2] = target: human GABAA α1β3γ2 receptor (Homo sapiens (Human), UniProt P14867+P18507); assay: Radioligand binding assay, competition for [3H]Flumazenil, γ2-containing GABAA subtypes; conditions: for γ2/γ1 Selectivity Ratio: Ki α1β3γ2 (nM)/Ki α2β2γ1 (nM); for LogSel: Log[Ki α1β3γ2 (nM)/Ki α2β2γ1 (nM)]
Summary of the method: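 Competition against [3H]Flumazenil binding in HEK293F cells transiently expressing human α1β3γ2 receptors, pellets resuspended in mannitol buffer pH 7,2-7,4. Incubated to equilibrium 1 hour at 4° C, filtered and washed with ice-cold 50 mM Tris pH 7.5, bound radioactivity by liquid scintillation counting. Ki values are means of two determinations.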

[3] = target: human GABAA α2β2γ1 receptor (Homo sapiens (Human), UniProt P47869+Q8N1C3); assay: Radioligand binding assay, competition for [3H]RO7239181, γ1-containing GABAA subtypes
[4] = HEK293F cells, [3H]Flumazenil 1 nM, Table 1, read-out: Ki h-GABAA α1β3γ2
[5] = Ki h-GABAA α2β2γ1, membranes of HEK293F cells, [3H]RO7239181 20-30 nM, Table 1
[6] = Ki h-GABAA α2β2γ1, membranes of HEK293F cells, [3H]RO7239181 20-30 nM, Table 2

| SMILES | Ki [1] [nM] | Ki [2, 4] [nM] | γ2/γ1 Selectivity Ratio ([2]; Table 1) | LogSel ([2]; Table 1) | Ki [3, 5] [nM] | Ki [3, 6] [nM] | Ki [2] [nM] | γ2/γ1 Selectivity Ratio ([2]; Table 3) | LogSel ([2]; Table 3) | Ki ([3]; Ki h-GABAA α2β2γ1, Table 3, reference compounds and examples) [nM] |
| --- | --- | --- | --- | --- | --- | --- | --- | --- | --- | --- |
| C[C@@H]1N=C(c2c(F)cccc2F)c2c(sc3c2COCCC3)-n2cc(C(=O)NCCO)nc21 [Example 66, (7S)-9-(2,6-difluorophenyl)-N-(2-hydroxyethyl)-7-methyl-13-oxa-18-thia-2,5,8-triazatetracyclo[8.8.0.02,6.011,17]octadeca-1(10),3,5,8,11(17)-pentaene-4-carboxamide] | 2.94 | 2510 | 170.6 | 2.23 | 14.7 | 14.7 |  |  |  |  |
| Cc1nnc2n1-c1sc3c(c1C(c1c(F)cccc1F)=N[C@H]2C)CCCC(O)C3 (mixture of isomers) [Example 13, (7S,15RS)-9-(2,6-difluorophenyl)-3,7-dimethyl-18-thia-2,4,5,8-tetrazatetracyclo[8.8.0.02,6.011,17]octadeca-1(10),3,5,8,11(17)-pentaen-15-ol] | 5.67 |  | 78.9 | 1.90 | 15.1 | 15.1 | 1190 |  |  |  |
| Cc1nc2n(n1)-c1sc3c(c1C(c1c(F)cccc1F)=N[C@H]2C)COCCC3 [Example 57, (7S)-9-(2,6-difluorophenyl)-4,7-dimethyl-13-oxa-18-thia-2,3,5,8-tetrazatetracyclo[8.8.0.02,6.011,17]octadeca-1(10),3,5,8,11(17)-pentaene] | 1.53 |  | 615.2 | 2.79 | 7.3 | 7.3 | 4520 |  |  |  |
| Cc1nc2n(n1)-c1sc3c(c1C(c1c(F)cccc1F)=N[C@H]2C)COCCO3 [Example 28, (7S)-9-(2,6-difluorophenyl)-4,7-dimethyl-13,16-dioxa-18-thia-2,3,5,8-tetrazatetracyclo[8.8.0.02,6.011,17]octadeca-1(10),3,5,8,11(17)-pentaene] | 0.89 |  | 353.3 | 2.55 | 5.5 | 5.5 | 1940 |  |  |  |
| C[C@@H]1N=C(c2c(F)cccc2F)c2c(sc3c2COCCO3)-n2c(C3CC3)nnc21 [Example 43, (7S)-3-cyclopropyl-9-(2,6-difluorophenyl)-7-methyl-13,16-dioxa-18-thia-2,4,5,8-tetrazatetracyclo[8.8.0.02,6.011,17]octadeca-1(10),3,5,8,11(17)-pentaene] | 4.45 |  | 227.2 | 2.36 | 23.6 | 23.6 | 5360 |  |  |  |
| Cc1nnc2n1-c1sc3c(c1C(c1c(F)cccc1F)=N[C@H]2C)CC[C@H](F)CC3 (single isomer, unassigned) [Example 14] | 4.87 |  | 286.6 | 2.46 | 38.4 | 38.4 | 11000 |  |  |  |
| Cc1nnc2n1-c1sc3c(c1C(c1c(F)cccc1F)=N[C@H]2C)CCCC(F)(F)C3 [Example 8, (7S)-9-(2,6-difluorophenyl)-15,15-difluoro-3,7-dimethyl-18-thia-2,4,5,8-tetrazatetracyclo[8.8.0.02,6.011,17]octadeca-1(10),3,5,8,11(17)-pentaene] | 12.8 |  | 53.8 | 1.73 | 51.3 | 51.3 | 2760 |  |  |  |
| Cc1nc2n(n1)-c1sc3c(c1C(c1c(F)cccc1F)=N[C@H]2C)COC[C@H](C)O3 [Example 39, (7S,15S)-9-(2,6-difluorophenyl)-4,7,15-trimethyl-13,16-dioxa-18-thia-2,3,5,8-tetrazatetracyclo[8.8.0.02,6.011,17]octadeca-1(10),3,5,8,11(17)-pentaene] | 3.47 |  | 157.6 | 2.20 | 57.8 | 57.8 | 9120 |  |  |  |
| Cc1nnc2n1-c1sc3c(c1C(c1c(F)cccc1F)=N[C@H]2C)COC[C@H](C)O3 [Example 30, (7S,15S)-9-(2,6-difluorophenyl)-3,7,15-trimethyl-13,16-dioxa-18-thia-2,4,5,8-tetrazatetracyclo[8.8.0.02,6.011,17]octadeca-1(10),3,5,8,11(17)-pentaene] | 3.28 |  | 49.6 | 1.70 | 36.9 | 36.9 | 1830 |  |  |  |
| Cc1nnc2n1-c1sc3c(c1C(c1c(F)cccc1F)=N[C@H]2C)CC[C@@H](F)CO3 [Example 56, (7S,14R)-9-(2,6-difluorophenyl)-14-fluoro-3,7-dimethyl-16-oxa-18-thia-2,4,5,8-tetrazatetracyclo[8.8.0.02,6.011,17]octadeca-1(10),3,5,8,11(17)-pentaene] | 6.9 |  | 290.8 | 2.46 | 39.4 | 39.4 | 11500 |  |  |  |
| C[C@@H]1N=C(c2c(F)cccc2F)c2c(sc3c2CCCCC3)-n2c(C3CC3)nnc21 [Example 3, (7S)-3-cyclopropyl-9-(2,6-difluorophenyl)-7-methyl-18-thia-2,4,5,8-tetrazatetracyclo[8.8.0.02,6.011,17]octadeca-1(10),3,5,8,11(17)-pentaene] | 3.69 |  | 51.0 | 1.71 | 26.6 | 26.7 | 1360 |  |  |  |
| CCNC(=O)c1nc2n(n1)-c1sc3c(c1C(c1c(F)cccc1F)=N[C@H]2C)COCCO3 [Example 37, (7S)-9-(2,6-difluorophenyl)-N-ethyl-7-methyl-13,16-dioxa-18-thia-2,3,5,8-tetrazatetracyclo[8.8.0.02,6.011,17]octadeca-1(10),3,5,8,11(17)-pentaene-4-carboxamide] | 3.21 | 4080 | 121.1 | 2.08 | 33.7 | 33.7 |  |  |  |  |
| C[C@@H]1N=C(c2c(F)cccc2F)c2c(sc3c2COCCO3)-n2nc(C(=O)NCCF)nc21 [Example 25, (7S)-9-(2,6-difluorophenyl)-N-(2-fluoroethyl)-7-methyl-13,16-dioxa-18-thia-2,3,5,8-tetrazatetracyclo[8.8.0.02,6.011,17]octadeca-1(10),3,5,8,11(17)-pentaene-4-carboxamide] | 2.1 | 2190 | 75.4 | 1.88 | 29 | 29 |  |  |  |  |
| C[C@@H]1N=C(c2c(F)cccc2F)c2c(sc3c2COCCO3)-n2nc(C(=O)N3CC(OC(C)(C)C)C3)nc21 [Example 29, (3-tert-butoxyazetidin-1-yl)-[(7S)-9-(2,6-difluorophenyl)-7-methyl-13,16-dioxa-18-thia-2,3,5,8-tetrazatetracyclo[8.8.0.02,6.011,17]octadeca-1(10),3,5,8,11(17)-pentaen-4-yl]methanone] | 1.82 | 2830 | 366.9 | 2.56 | 7.7 | 7.7 |  |  |  |  |
| Cc1nc2n(n1)-c1sc3c(c1C(c1c(F)cccc1F)=N[C@H]2C)CCCCC3 [Example 20, (7S)-9-(2,6-difluorophenyl)-4,7-dimethyl-18-thia-2,3,5,8-tetrazatetracyclo[8.8.0.02,6.011,17]octadeca-1(10),3,5,8,11(17)-pentaene] | 0.98 |  | 101.9 | 2.01 | 12.6 | 12.6 | 1280 |  |  |  |
| CC(C)c1nnc2n1-c1sc3c(c1C(c1c(F)cccc1F)=N[C@H]2C)COCCO3 [Example 44, (7S)-9-(2,6-difluorophenyl)-3-isopropyl-7-methyl-13,16-dioxa-18-thia-2,4,5,8-tetrazatetracyclo[8.8.0.02,6.011,17]octadeca-1(10),3,5,8,11(17)-pentaene] | 4.87 |  | 220.4 | 2.34 | 29 | 29 | 6390 |  |  |  |
| Cc1nnc2n1-c1sc3c(c1C(c1c(F)cccc1F)=N[C@H]2C)COCCC3 [Example 52, (7S)-9-(2,6-difluorophenyl)-3,7-dimethyl-13-oxa-18-thia-2,4,5,8-tetrazatetracyclo[8.8.0.02,6.011,17]octadeca-1(10),3,5,8,11(17)-pentaene] | 7.6 |  | 100.3 | 2.00 | 27.7 | 27.7 | 2780 | 100.3 | 2.0 | 27.7 |
| C[C@@H]1N=C(c2c(F)cccc2F)c2c(sc3c2COCCO3)-n2nc(C(=O)NC3CC3)nc21 [Example 36] | 3.66 | 4080 | 72.6 | 1.86 | 56.3 | 56.3 |  |  |  |  |
| C[C@@H]1N=C(c2c(F)cccc2F)c2c(sc3c2COCCO3)-n2nc(C(=O)NCC(C)(C)O)nc21 [Example 45, (7S)-9-(2,6-difluorophenyl)-N-(2-hydroxy-2-methyl-propyl)-7-methyl-13,16-dioxa-18-thia-2,3,5,8-tetrazatetracyclo[8.8.0.02,6.011,17]octadeca-1(10),3,5,8,11(17)-pentaene-4-carboxamide] | 3.25 | 3150 | 232.1 | 2.37 | 13.6 | 13.6 |  |  |  |  |
